Experiment [1] relates to acute focal cerebral ischemia (MCA occlusion). Set-up: species or system cat. Conditions: in vivo; for lived up to 7 days / mortality, 24-28 hours / mortality, 48-72 hours / mortality, less than 24 hours: ip.
The subject of experiment [2] is neurologic deficits secondary to cerebral ischemia. Particulars: man; cited from earlier work.
For experiment [3], the system named is ischemic neurologic deficit. Conditions: cited from earlier work.
In another experiment the test system is analgesic response. Particulars: mice; cited from earlier work.

Consider `C=CCN1CC[C@]23c4c5ccc(O)c4O[C@H]2C(=O)CC[C@@]3(O)[C@H]1C5` [Naloxone, 17-allyl-4-5α-epoxy-3,14-dihydroxymorphinan-6-one], for which, in experiment [1], the “effect in prolonging survival” value is on record as “prolonged survival”; the “lived up to 7 days” value is recorded as 31%; the “mortality, 24-28 hours” value stood at 15%; the “mortality, 48-72 hours” value was determined as 0%. Moreover, in experiment [1], the “mortality, less than 24 hours” value turned out to be 54%. Moreover, in experiment [2], the “effect on neurologic deficits secondary to cerebral ischemia” value is on record as “can reverse neurologic deficits”. In addition, the “survival and neurologic function in several models of stroke” value in experiment [3] (gerbils (Holaday and D'Amato)) is “no beneficial effect”. In addition, the “neurologic function and infarct size after temporary carotid occlusion” value in experiment [3] (gerbils (Levy et al.)) is “did not produce improved neurologic function or alter infarct size”. In addition, the “neurologic deficits produced by unilateral carotid ligation” value in experiment [3] (gerbils, intraperitoneal (Hosobuchi et al.)) is given as “can be reversed”.
For the compound `O=C1CC[C@@]2(O)[C@H]3Cc4ccc(O)c5c4[C@@]2(CCN3CC2CC2)[C@H]1O5` [Naltrexone], in experiment [1], the “effect in prolonging survival” value is reported as “prolonged survival”; the “lived up to 7 days” value is on record as 40%; the “mortality, 24-28 hours” value is reported as 10%; the “mortality, 48-72 hours” value turned out to be 10%. Also, in experiment [1], the “mortality, less than 24 hours” value was 40%.
Regarding `CN1CC[C@]23c4c5ccc(O)c4O[C@H]2[C@@H](O)C=C[C@H]3[C@H]1C5` [morphine], the “effect on neurologic deficits secondary to cerebral ischemia” value in experiment [2] was “exacerbates them”.
Take Dynorphin: the analgesic potency result with analgesic response was “little or no analgesic potency”.

(Values after US4684624A (priority 1985, dated 1987).)
